“Also recorded” adds a separate entry of the source. Where a name gives a salt, the structure may show the parent alone.
Tests used:
[1] = Water solubility; format: physicochemical
Text: Danegaptide as a HCL salt is water-soluble. To investigate the viability of this drug, a melt extrusion formulation strategy was chosen, and six different formulations based on various viable excipients feasible for the melt extrusion process were manufactured with approximately 20% drug load.

[2] = tested on: Gap-Junction coupling; test: In vitro and in vivo pre-clinical studies, Gap-Junction coupling under stressed conditions
[3] = Dissolution testing of prototype formulations in 0.9% NaCl at 37° C., HPLC; format: physicochemical; details: prolonged storage of the dosage form at 37° C.
Method: Described below is the dissolution behavior of Danegaptide when formulated in 6 different melt extrusion formulations. The formulations were manufactured with a drug load of about 20%. The formulations were exposed to physiological salt solutions at 37° C. and stored for several months. The media was changed regularly and analyzed for content of Danegaptide.
The dissolution process was investigated for each of the 6 manufactured prototypes by inserting the prototypes into a 0.9% NaCl solution and test the dissolution of Danegaptide over time by HPLC. The experiment was conducted over 170 days.
Fifteen dose units of each prototype was weighed and were wrapped into a permeable filter bag consisting of empty triangular tea bags made of polymeric material, with a mesh size of less than 0.5 μm. The bags were each inserted into glass vials and 10 ml 0.9% NaCl solution media were added to each vial. The vials were placed in a water bath at 37° C. At regular intervals the media was drained and 10 ml new media was added and the vials were returned to the water bath. […] One day delivery periods were also tested several times during the dissolution period. […] In addition, an informative impurity profile was recorded. In relation to this, the pH value of each collected media sample was determined. […]
The Danegaptide content was quantified to a Danegaptide reference substance. […]

[4] = tested on: retinal vascular cells; details: cited from earlier work
[5] = tested on: vascular leakage; details: cited from earlier work
[6] = tested on: retinal endothelial cell coupling; details: in vitro; cited from earlier work
[7] = Toxicology program; format: in vivo; details: high concentration levels administered locally in selected tissues or systemically
Text: However, the protective effects of danegaptide from stress-induced cell-cell uncoupling or cellular loss may be diminished or lost at higher concentrations of danegaptide.

With NCC(=O)N1C[C@H](NC(=O)c2ccccc2)C[C@H]1C(=O)O [Danegaptide as a HCL salt] the Water solubility [1] was “water-soluble”.
For NCC(=O)N1C[C@H](NC(=O)c2ccccc2)C[C@H]1C(=O)O [Danegaptide, (2S,4R)-1-(2-aminoacetyl)-4-benzoylamino-pyrrolidine-2-carboxylic acid], the “Optimal concentration in the target tissue, such as the retina, to maintain Gap-Junction coupling” value [2] is given as 50 to 100 nM, the “Degradation of Danegaptide during the dissolution period (HPLC impurity profile)” value [3] is given as “probably only happened to a smaller extent; also recorded: did not indicate a significant degradation pattern” and the “Cell-cell GJ uncoupling” value ([4]; high glucose condition) is given as “prevent cell-cell GJ uncoupling”. For the same molecule, the High glucose-induced apoptosis ([4]; retinal vascular cells) was “prevent high glucose-induced apoptosis”, the Vascular leakage [5] was “reduce vascular leakage” and the “Concentration giving optimal protection from high-glucose induced cell-cell uncoupling” value [6] was 50 to 100 nM. The Toxicity [7] was “no toxicity concerns”.
